Laboratory results published in patent US20080261895A1 (Wyeth, priority 2006, published 2008).
Several values for one entry are separate records, joined by “and”; a condition that tells them apart may be missing. Equal values may be shown once.

How the values were obtained:
[1] = Whole blood and plasma radioactivity and partitioning after single oral [14C]DVS, dogs; format: in vivo, beagle dogs; settings: single oral 30 mg/kg; for Radioactivity in Plasma, Individual Dogs / Radioactivity in Plasma, Mean ± S.D. / Radioactivity in Whole Blood, Individual Dogs: listed as [^14C]DVS, 30 mg/kg
Protocol: Male beagle dogs (n=4), weighing between 14.4 and 16.2 kg at the time of dosing (from an in-house colony), were used. For ease of reporting, the animals were designated numbers 5 through 8. Dose preparation, animal dosing and sample collection were performed at Wyeth Research, Pearl River, N.Y.
The oral dosing solution was prepared by suspending 19.0 mg of [^14C]DVS and 4168.3 mg of unlabeled DVS in 270 mL of vehicle (0.25% polysorbate 80, 0.5% methylcellulose in water). The radiochemical purity, specific activity and concentration of [^14C]DVS (bulk drug and dosing solution) were determined using HPLC with radiometric detection. Duplicate aliquots of the dosing solution were taken pre-, mid- and post-dose for the determination of specific activity and radioactivity concentrations of the dosing solution.
The target dose for each animal was 30 mg/kg (free base; 10 mg/mL, 3 mL/kg, 30 μCi/kg) [^14C]DVS via oral gavage. The target dose was selected because it has been used in previous pharmacokinetic studies.
Whole blood (approximately 10 mL), collected into heparinized tubes at 1, 4, 8, and 24 hours post-dose (N=4 for each time point), was analyzed. One mL of blood was transferred to a fresh tube to be used for determination of radioactivity concentrations. Plasma was obtained by centrifugation at 4° C. within two hours of blood collection. Plasma and whole blood samples were shipped on dry ice to Wyeth Research, Biotransformation Division (Collegeville, Pa.) for analysis. Triplicate aliquots of whole blood (200 μL) were placed into combusto-cones and allowed to air dry. These samples were then oxidized and radioactivity content determined. Triplicate aliquots (100 μL) of the plasma samples were analyzed for radioactivity content. The remaining plasma was stored at −70° C. until metabolite analysis.
(§1) For each dog, urine and feces were collected separately, with urine collected on dry ice and feces collected at room temperature. Collections were from 0-8 and 8-24 hours for urine and 0-24 hours for feces. Urine and fecal samples were shipped on dry ice to Wyeth Research, Biotransformation Division (Collegeville, Pa.) for analysis. Fecal samples were homogenized in approximately five volumes (v/w) of water. Aliquots of approximately 0.2 grams of the homogenate were placed into combusto-cones, weighed and allowed to air dry. These samples were then oxidized and radioactivity content determined. The remaining urine samples and fecal homogenates were stored at −70° C. until metabolite analysis. Blood samples and fecal homogenates were oxidized in a Model 307 Tri-Carb sample oxidizer, using Carbosorb® E (6 mL) as trapping agent and PermaFluor® E^+ (10 mL) as scintillant. The background reading (average of control blood or fecal samples) was subtracted from each sample reading. Aliquots of urine and plasma were analyzed directly following the addition of 10 mL of Ultima Gold™ scintillation fluid.
All radioactivity determinations were made using a Tri-Carb Model 3100TR liquid scintillation counter (Packard BioScience, Boston, Mass.) with an Ultima GOl™ or toluene standard curve. Counts per minute (CPM) were converted to disintegrations per minute (DPM) by use of external standards of known radioactivity. The quench of each standard was determined by the transformed spectral index of an external radioactive standard (tSIE). The lower limits of detection were defined as twice background.

[2] = Fecal excretion and metabolite profile by radiochromatography, dogs; format: in vivo, beagle dogs; settings: single oral 30 mg/kg
Protocol: as §1
Fecal homogenates collected up to 24 hours post-dose were analyzed for metabolite profiles. Aliquots of approximately 2 grams of fecal homogenate were transferred to a fresh tube, an equal volume of acetonitrile (v/w) was added, and the tube vortexed. Samples were then centrifuged at 14000 rpm in an Eppendorf Model 5415C centrifuge for 10 minutes. The supernatant was transferred to a clean tube. The residue was re-suspended with 1 mL acetonitrile and centrifuged as described above. The resulting supernatant was combined with the original supernatant and analyzed for radioactivity. The supernatants were then concentrated under a stream of nitrogen in a Turbo Vap to remove the acetonitrile. An aliquot of the aqueous residue was analyzed by HPLC for profiling. Selected samples were also analyzed by LC/MS to characterize the radioactive peaks.
Chromatographic analyses were performed with a Waters Alliance model 2690 HPLC system (Waters Corp., Milford, Mass.). It was equipped with a built-in autosampler and was in-line with a model 2487 tunable UV detector, set to monitor 225 nm, and a FloOne β Model 515 radioactivity flow detector (Perkin Elmer) with a 250 μL LQTR flow cell. The flow rate of Ultima Flow M scintillation fluid was 3 mL/min, providing a mixing ratio of scintillation cocktail to mobile phase of 3:1. Separation of the metabolite peaks was accomplished on a Phenomenex Luna C18(2) column, 250×4.6 mm, 5 micron (Phenomenex, Torrance, Calif.), using a linear gradient of two mobile phases, A and B. Mobile phase A was 10 mM ammonium acetate, pH 5.5, and mobile phase B was acetonitrile. The flow rate was 1 mL/min.

[3] = Stability of [14C]DVS in control dog plasma; format: in vitro ADME; settings: 37° C., up to 24 hours
Protocol: The stability of [^14C]DVS in dog plasma was determined. [^14C]DVS (0.012 mg/mL, final concentration) was added to control dog plasma and incubated in a shaking water bath set to 37° C. Duplicate aliquots (1 mL) were removed at 0, 1, 4, 8, and 24 hours. Samples were extracted as described above and radiopurity assayed by HPLC analysis.

[4] = test system: norepinephrine levels in the brains; assay: Norepinephrine levels in the brains of rats; format: in vivo; settings: 30 mg/kg (free base), administered subcutaneously, male Sprague Dawley rats

CN(C)CC(c1ccc(O)cc1)C1(O)CCCCC1.O=C(O)CCC(=O)O (centres unmarked) [DVS, O-desmethylvenlafaxine succinate]
Radioactivity in Whole Blood, Mean ± S.D. ([1]; 1 hr): 8.37 ± 1.45 μg equivalents/mL | Radioactivity in Plasma, Individual Dogs ([1]; 1 hr): 14.6 μg equivalents/mL and 11.5 μg equivalents/mL and 9.56 μg equivalents/mL and 17.5 μg equivalents/mL | Radioactivity in Plasma, Mean ± S.D. ([1]; 1 hr): 13.3 μg equivalents/mL and 13.3 ± 3.5 μg equivalents/mL | Radioactivity in Whole Blood, Individual Dogs ([1]; 1 hr): 8.56 μg equivalents/mL and 8.61 μg equivalents/mL and 6.40 μg equivalents/mL and 9.91 μg equivalents/mL | Radioactivity in Whole Blood, Mean ± S.D. ([1]; 4 hr): 8.58 ± 0.59 μg equivalents/mL | Radioactivity in Plasma, Individual Dogs ([1]; 4 hr): 17.0 μg equivalents/mL and 16.8 μg equivalents/mL and 16.5 μg equivalents/mL and 17.1 μg equivalents/mL | Radioactivity in Plasma, Mean ± S.D. ([1]; 4 hr): 16.9 μg equivalents/mL and 16.9 ± 0.3 μg equivalents/mL | Radioactivity in Whole Blood, Individual Dogs ([1]; 4 hr): 8.16 μg equivalents/mL and 8.03 μg equivalents/mL and 8.82 μg equivalents/mL and 9.30 μg equivalents/mL | Radioactivity in Whole Blood, Mean ± S.D. ([1]; 8 hr): 3.84 ± 1.01 μg equivalents/mL | Radioactivity in Plasma, Individual Dogs ([1]; 8 hr): 4.51 μg equivalents/mL and 9.12 μg equivalents/mL and 10.2 μg equivalents/mL and 5.87 μg equivalents/mL | Radioactivity in Plasma, Mean ± S.D. ([1]; 8 hr): 7.43 μg equivalents/mL and 7.43 ± 2.68 μg equivalents/mL | Radioactivity in Whole Blood, Individual Dogs ([1]; 8 hr): 3.30 μg equivalents/mL and 3.79 μg equivalents/mL and 5.27 μg equivalents/mL and 2.98 μg equivalents/mL | Radioactivity in Whole Blood, Mean ± S.D. ([1]; 24 hr): 0.48 ± 0.20 μg equivalents/mL | Radioactivity in Plasma, Individual Dogs ([1]; 24 hr): 0.66 μg equivalents/mL and 0.86 μg equivalents/mL and 1.14 μg equivalents/mL and 0.56 μg equivalents/mL | Radioactivity in Plasma, Mean ± S.D. ([1]; 24 hr): 0.81 μg equivalents/mL and 0.81 ± 0.25 μg equivalents/mL | Radioactivity in Whole Blood, Individual Dogs ([1]; 24 hr): 0.38 μg equivalents/mL and 0.47 μg equivalents/mL and 0.75 μg equivalents/mL and 0.31 μg equivalents/mL | Compounds Detected by Radiochromatography in feces, percent of total peaks, individual dogs ([2]; feces 0-24 hours post dose (dog 7 until 48 hours), average of 2 analyses): 78.6% and 50.6% and 85.7% and 88.8% | Radioactivity as % of Dose in feces, individual dogs ([2]; feces 0-24 hours post dose (dog 7 until 48 hours), listed as [^14C]DVS): 4.4% and 0.3% and 4.0% and 3.3% | Compounds Detected by Radiochromatography in feces, percent of total peaks, Mean ± S.D. ([2]; feces 0-24 hours post dose): 76% and 75.9 ± 17.4% | Radioactivity as % of Dose in feces, Mean ± S.D. ([2]; feces 0-24 hours post dose): approximately 3% | Radioactivity as % of Dose in feces, Mean ± S.D. ([2]; feces 0-24 hours post dose, listed as [^14C]DVS): 3.0 ± 1.9% | Stability of [14C]DVS in control dog plasma [3]: stable | norepinephrine levels in the brains [4]: significantly increased
